In publication PMC4602232, “Structural basis for recognition of Emi2 by Polo-like kinase 1 and development of peptidomimetics blocking oocyte maturation and fertilization” (Scientific Reports, 2015):
“Also recorded” adds a separate entry of the source. Non-standard residues stand in square brackets, D forms with d. No end group written: not given here. pT = C[C@@H](OP(=O)(O)O)[C@H](N)C(=O)O

B1: Phosphorylated Emi2 169-177 peptide (phospho-Thr176) (peptide)
peptide: FSQHKTS[pT]I-NH2
notes: Made on Rink amide resin, so probably a C-terminal amide (surmised); source: synthetic peptide (Fmoc SPPS, Rink amide resin, RP-HPLC)
B2: Phosphorylated Emi2 146-177 peptide (phospho-Thr152 and phospho-Thr176) (peptide, UniProt Q8CDI2 146-177, looked up)
peptide: SPLVTS[pT]IKTEDVVSNSQNSRLHFSQHKTS[pT]I
notes: as for B1

Assays:
[1] = tested on: bromodomain BRD4; conditions: cited from earlier work
From the text: On the other hand, due to the high degree of similarity among kinase domains’ ATP-binding pockets, achieving good specificity is a difficult task. […] Because PBD exists only in the Plk family (Plk1 through Plk4), targeting of this site can result in high specificity along with enhanced binding affinity; these properties may faci ...

[2] = tested on: Emi2^1–300-mCherry reporter in MII oocytes; assay: Emi2^1–300-mCherry degradation after parthenogenetic activation (time-lapse microscopy); format: cell-based, mouse; conditions: SrCl2 treatment in the presence of 100 nM BI2536; n = 3 oocytes
From the text: pRN3-Emi2^1−300-mCherry plasmids containing the Plk1 recognition site and a degron for a SCF family ubiquitin ligase were constructed from synthetic Emi2^1–300 gene fragments and subcloned into the pRN3 vector as an mCherry fusion by means of Gibson Assembly[50]. The plasmids were linearized by digestion with SfiI; then cRNA was synthesized with T3 mMessage mMachine (Life Technologies). In vitro transcripts were purified by phenol-chloroform extraction and isopropyl alcohol precipitation and stored at −80 °C until use.
GV stage oocytes were injected with various peptidomimetics at 300 μM in a 50% aqueous solution (w/v) of dimethyl sulfoxide. Peptidomimetics were injected into oocyte by means of a Eppendorf Femto Jet (Eppendorf AG, Hamburg, Germany) and a Nikon Diaphot ECLIPSE TE300 inverted microscope (Nikon UK Ltd., Kingston upon Thames, Surrey, UK) equipped with a Narishige MM0-202N hydraulic three-dimensional micromanipulator (Narishige Inc., Sea Cliff, NY, USA) and subjected to in vitro maturation as described above. As a control, the BG34 reagent with threonine residues instead of phosphothreonine[35] was injected into oocytes at 300 μM. To test the oocytes for parthenogenetic activation, we collected mature MII oocytes and injected them with various reagents as described above for GV oocytes. […]

[3] = tested on: mouse oocyte maturation; conditions: cited from earlier work
From the text: In Xenopus and in mice, the general scheme of calcium-mediated signal transduction has been well established, but the detailed molecular mechanism has been elusive. For instance, Plk1 is involved in Emi2 phosphorylation and destabilization, but the mechanism of binding of Plk1 to Emi2 has not yet been determined. Plk1 is known to be involved in various cell cycle-related processes, and recently it received attention as a target of anticancer treatments.

[4] = molecular target: T1, Mouse Plk1 Polo box domain (Plk1-PBD, amino acid residues 367-603) (mouse, UniProt Q07832 367-603); assay: ITC; phosphorylated peptide (1.2 mM) injected into Plk1-PBD (0.1 mM) in the cell; 15 °C; 20 mM Tris-Cl pH 8.0, 300 mM NaCl, 3 mM DTT; one-site binding model; conditions: both partners purified
T1 construct: Polo-like kinase 1 (Plk1), mouse, polo box domain, residues 367-603; TEV site ENLYFQ/S between the His6 tag and the PBD; cleavage between Q and S should leave a Ser before residue 367 (surmised); also called polo box domain of Polo-like kinase 1; source: E. coli BL21 (DE3), purified (Ni-NTA, TEV digestion, Superdex 75 gel filtration); not shown: His6, N-terminal, cleaved
T1 sequence (Q07832 367-603): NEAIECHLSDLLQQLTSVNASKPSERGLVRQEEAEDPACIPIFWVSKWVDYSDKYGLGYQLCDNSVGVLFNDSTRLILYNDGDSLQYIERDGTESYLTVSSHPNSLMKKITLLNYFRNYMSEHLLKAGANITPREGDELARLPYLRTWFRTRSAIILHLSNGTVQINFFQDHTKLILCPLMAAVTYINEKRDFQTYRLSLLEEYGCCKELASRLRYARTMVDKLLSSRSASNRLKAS

| Molecule | binding and inhibition of BRD4 (in words) [1] | decrease of Emi2-mCherry fluorescence after parthenogenetic activation (in words) [2] | mouse oocyte maturation (in words) [3] | Kd [4] [µM] | stoichiometry N [4] |
| --- | --- | --- | --- | --- | --- |
| CC[C@@H]1C(=O)N(C)c2cnc(Nc3ccc(C(=O)NC4CCN(C)CC4)cc3OC)nc2N1C1CCCC1 [BI2536] | bind and inhibit bromodomain BRD4 at nanomolar concentration | did not cause any reduction in fluorescence even after 100 min; also recorded: blocks Emi2 degradation after parthenogenetic activation by SrCl2 | impairs mouse oocyte maturation | – | – |
| B1 | – | – | – | 29.6 | 0.92 ratio of Emi2^169–177 to Plk1-PBD |
| B2 | – | – | – | – | 0.47 ratio of Emi2^146–177 to Plk1-PBD |
